Assays:
[1] = target: T1, HDAC8 (Homo sapiens, UniProt Q9BY41); assay: Fluorescence-based HDAC inhibition assay, HDAC8; format: biochemical; conditions: for IC50: 10 μM Boc-Lys(TFA)-AMC substrate, mean of two experiments ± SEM
T1 construct: made in house; host or cells: HEK293/T17 cells, transient transfection
T1 sequence (Q9BY41 1-377): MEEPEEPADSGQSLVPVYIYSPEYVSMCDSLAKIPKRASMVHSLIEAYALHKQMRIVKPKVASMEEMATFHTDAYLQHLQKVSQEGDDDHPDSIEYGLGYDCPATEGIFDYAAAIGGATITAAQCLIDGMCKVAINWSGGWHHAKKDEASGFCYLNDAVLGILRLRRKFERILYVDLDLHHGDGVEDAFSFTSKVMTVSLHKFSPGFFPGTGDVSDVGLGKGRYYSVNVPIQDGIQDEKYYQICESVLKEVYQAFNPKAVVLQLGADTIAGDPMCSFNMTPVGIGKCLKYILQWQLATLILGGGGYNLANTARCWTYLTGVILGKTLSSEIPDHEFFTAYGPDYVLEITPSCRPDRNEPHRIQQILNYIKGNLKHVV
Procedure: Briefly, transiently transfected cells were harvested three days post-transfection and the cell pellets resuspended in a lysis buffer (50 mM Tris, 150 mM NaCl, 10 mM KCl, 2 mM MgCl2, 10% glycerol, 0.2% NP-40, 2 Units/mL benzonase, pH 8) supplemented with a cocktail of protease inhibitors (Roche, Basel, Switzerland). Cells were lysed by sonication (30 W; 3×20 s) on ice, and the cell lysate cleared by centrifugation at 40 000×g for 30 min at 4° C. […] Purified proteins were concentrated to 1 mg/mL, aliquoted, flash-frozen in liquid nitrogen, and stored at −80° C. until further use.
Briefly, individual HDACs were preincubated with dilution series of tested inhibitors (0-100 μM) in a 384-well plate in the total volume of 40 μL for 10 min at 37° C. in a reaction buffer comprising 50 mM HEPES, 140 mM NaCl, 10 mM KCl, 1 mM TCEP, 0.1% BSA, pH 7.4. Deacetylation reaction was started by the addition of 10 μL of a 10 μM substrate into the HDAC/inhibitor mixture. Following the 30 min incubation at 37° C., the reaction was terminated by the addition of 25 μL of the trypsin solution (4 mg/mL). Fluorescence development by trypsin was carried out at 37° C. for 15 and 60 min for Ac-GAK(Ac)-AMC and Boc-Lys(TFA)-AMC substrate, respectively. […] Non-linear regression analysis was employed to calculate IC50 values using the GraphPad Prism software. […] Reactions without the enzyme or the inhibitor were used to define 0% and 100% of the HDAC activity, respectively.

[2] = system: STAT3; assay: IL-6 induced STAT3 phosphorylation in WM164 melanoma cells; format: cell-based, human; conditions: WM164 cells pre-treated with 5 μM, then IL-6 (30 ng/mL) for 20 min, vs IL-6 alone
Procedure: The SM1 murine melanoma cells were obtained from Dr. A. Ribas at the University of California, Los Angeles. WM164 human melanoma cells were obtained from ATCC. The cells were cultured in an incubator in RPMI 1640, 1% penicillin-streptomycin, and 10% fetal bovine serum at 37° C. with 5% CO2. […] For STAT3 phosphorylation assays, cells were pre-treated with or without HDAC6i (5 μM) for overnight followed by treatment with recombinant human IL-6 (Biolegend) for 20 min. PBS was added as a control. RAW 264.7 macrophages were purchased from ATCC and cultured in DMEM medium supplemented with 10% FBS, 1% non-essential amino acids, and 2-mercaptoethanol (50 μM). […] Cytotoxicity assay was performed using CellTox Green (Promega, Cat #G8731) following the manufacturer's instructions, and fluorescence readings were obtained on Spectramax i3 (Molecular Devices) multimode plate reader at wavelengths EX 485 nm and EM 520 nm. […]
The cells were harvested and lysed with RIPA buffer (ThermoScientific, 89900) containing protease and phosphatase inhibitors (ThermoScientific, 78440) by sonication in Bioruptor (Diagenode) for 8 cycles of 30 seconds ON and 30 seconds OFF on high setting. To assess the expression of proteins, total protein samples were heat-denatured in SDS sample loading buffer, and 15-20 μg of protein was analysed on 4-20% SDS-PAGE gels (Bio-Rad, 456-1093). […]

[3] = system: immune cells; assay: Immune cell phenotyping by flow cytometry in the SM1 melanoma model; format: in vivo, C57BL/6 mice
Procedure: To understand the immunomodulatory properties of Suprastat, a comprehensive immune cell phenotyping by flow cytometry was performed. […] (see, e.g., Knox et al., Sci. Rep. 9: 6136 (2019)). […] A significant change in immunosuppressive T-regs (FIG. 6F) was not observed. […] (see, e.g., Knox et al., Sci. Rep. 9: 6136 (2019)).

[4] = physchem; conditions: PBS

SMILES | SI (HDAC6 selectivity index over HDAC8) [1] | IC50 [1] [nM] | Y705 phosphorylation of STAT3 [2] | F4/80+CD206+ pro-tumor M2 macrophages ([3]; flow cytometry) | natural killer (NK) cells ([3]; flow cytometry) | percentage of CD8+ central memory (CM) cells ([3]; flow cytometry) | M1/M2 ratio ([3]; relative to control and anti-PD1 groups) | half-life [4] [h]
O=C(NO)c1ccc(CN(CCCCO)C(=O)Nc2ccccc2)cc1 [Compound 6c, reference compound] | 956 | 478 ± 97 | – | – | – | – | – | –
CCCCN(Cc1ccc(C(=O)NO)cc1)C(=O)Nc1ccc(CN)cc1 [Compound 6b, 4-((3-(4-(Aminomethyl)phenyl)-1-butylureido)methyl)-N-hydroxybenzamide] | 682 | 614 ± 58 | – | – | – | – | – | –
NCc1ccc(NC(=O)N(CCCCO)Cc2ccc(C(=O)NO)cc2)cc1 [Compound 6a, 4-((3-(4-(Aminomethyl)phenyl)-1-(4-hydroxybutyl)ureido)methyl)-N-hydroxybenz-amide] | 1,250 | 498 ± 58 | decreased Y705 phosphorylation of STAT3 | significantly decreased | positive trend | increase in the percentage of CD8+ central memory (CM) cells | significantly higher M1/M2 ratio | > 24
